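Compound exposure: 48 hours, 5 concentrations, 96-well plates. TGI is the concentration that stops growth completely.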
Legend:
Assay in all cases: NCI anticancer screen, dose series, 48 h
SK-OV-3 ovarian = system: SK-OV-3 ovarian
M14 melanoma = system: M14 melanoma
HCC-2998 colon = system: HCC-2998 colon
RXF 393 renal = system: RXF 393 renal
ACHN renal = system: ACHN renal
EKVX NSCLC = system: EKVX NSCLC
CCRF-CEM leukemia = system: CCRF-CEM leukemia
LOX IMVI melanoma = system: LOX IMVI melanoma
SK-MEL-5 melanoma = system: SK-MEL-5 melanoma
U251 CNS = system: U251 CNS
HL-60(TB) leukemia = system: HL-60(TB) leukemia
OVCAR-4 ovarian = system: OVCAR-4 ovarian
SF-539 CNS = system: SF-539 CNS
DU-145 prostate = system: DU-145 prostate
T-47D breast = system: T-47D breast
MDA-N = system: MDA-N

Row | Structure (SMILES) | TGI (SK-OV-3 ovarian) | TGI (M14 melanoma) | TGI (HCC-2998 colon) | TGI (RXF 393 renal) | TGI (ACHN renal) | TGI (EKVX NSCLC) | TGI (CCRF-CEM leukemia) | TGI (LOX IMVI melanoma) | TGI (SK-MEL-5 melanoma) | TGI (U251 CNS) | TGI (HL-60(TB) leukemia) | TGI (OVCAR-4 ovarian) | TGI (SF-539 CNS) | TGI (DU-145 prostate) | TGI (T-47D breast) | TGI (MDA-N)
1 | Cc1nc2c(s/c(=N\N)n2-c2ccccc2)c(=O)[nH]1 | > 100 µM | > 100 µM | > 100 µM | > 100 µM | > 100 µM | > 100 µM | > 100 µM | > 100 µM | > 100 µM | > 100 µM | > 100 µM | > 100 µM | > 100 µM |  |  | 
2 | O=C(/C=C/c1c(O)c2ccccc2[nH]c1=O)CC(=O)C(=O)Nc1cccc(O)c1 | > 100 µM | > 100 µM | > 100 µM |  | > 100 µM | > 100 µM | > 100 µM | > 100 µM | > 100 µM | > 100 µM | > 100 µM | > 100 µM | > 100 µM | > 100 µM | > 100 µM | 
3 | COc1ccc2c(c1)CC1NC2Cc2ccccc21 (centres undefined) | > 100 µM | > 100 µM | > 100 µM |  | > 100 µM | > 100 µM | > 100 µM |  | > 100 µM | > 100 µM |  | > 100 µM | > 100 µM |  |  | 
4 | NC(=Nc1ccc(Cl)c(Cl)c1)c1ccccc1N | > 100 µM | 41.4 µM | 34.2 µM | 75.9 µM | > 100 µM | > 100 µM | > 100 µM | 69.3 µM | 54.7 µM | > 100 µM | 52 µM | > 100 µM |  | > 100 µM |  | 53.4 µM
5 | Cc1cc(Cl)ccc1NC(=O)/C(CC(=O)CC(c1ccccc1)c1c(O)c2ccccc2oc1=O)=N\O (centres undefined) | > 100 µM | > 100 µM | > 100 µM | > 100 µM | > 100 µM | > 100 µM | > 100 µM | > 100 µM | > 100 µM | > 100 µM | > 100 µM | > 100 µM | > 100 µM | > 100 µM |  | > 100 µM
6 | CC[N+](CC)(CC)Cc1cn(S(=O)(=O)c2ccccc2)c2ccccc12 |  | > 100 µM | > 100 µM |  | > 100 µM |  | > 100 µM |  | > 100 µM | > 100 µM | > 100 µM | > 100 µM | > 100 µM |  |  | 
7 | O=C1OC(c2ccccc2)(c2ccccc2)CC1CN1CCOCC1 (centres undefined) | 60.6 µM | 31.4 µM | 31.4 µM |  | 32 µM | > 100 µM | 9.44 µM | 28 µM | > 100 µM | 49.7 µM | 28.3 µM | 40.9 µM | 32.6 µM |  |  | 
8 | N#CC(c1ccc(Cl)cc1)c1cccc(Cl)n1 (centres undefined) | > 100 µM | > 100 µM | > 100 µM |  | > 100 µM | > 100 µM | > 100 µM |  |  | > 100 µM | > 100 µM | > 100 µM |  |  |  | 
9 | CN(C)c1cccc(-c2cc(=O)c3cc4c(cc3[nH]2)OCO4)c1 | 0.932 µM | 0.461 µM | 0.567 µM | 0.859 µM | > 37 µM | > 100 µM | > 100 µM | > 100 µM | 2.83 µM | 3.95 µM | 2.23 µM | 4.59 µM | 0.756 µM |  |  | 
10 | COC(=O)CC1CN(C(=O)OCc2ccccc2)C(C)(C)O1 (centres undefined) | > 100 µM | > 100 µM | > 100 µM | > 100 µM | > 100 µM | > 100 µM | > 100 µM | > 100 µM | > 100 µM | > 100 µM | > 100 µM | > 100 µM | > 100 µM | > 100 µM |  | > 100 µM
11 | CC/C(=C/OC)P1(=O)OC(C)(C)CN1C(C)(C)C (centres undefined) | > 100 µM | > 100 µM | > 100 µM |  | > 100 µM | > 100 µM |  | > 100 µM | > 100 µM | > 100 µM |  | > 100 µM | > 100 µM | > 100 µM | > 100 µM | 
12 | CCCN(CCC)C(=S)N/N=C/c1cccc(C)n1 | 15.7 µM | 1.01 µM |  | 0.637 µM | 0.821 µM | 8.34 µM | 0.275 µM | 15.6 µM | 0.654 µM | > 100 µM | 0.384 µM | 3.21 µM | 0.545 µM | > 100 µM |  | 22.6 µM
13 | O=C(/C=C(\O)C(=O)O)/C=C(\O)c1ccccc1Cl | > 100 µM | > 100 µM | > 100 µM | > 100 µM | > 100 µM | > 100 µM | > 100 µM | > 100 µM | > 100 µM | > 100 µM | > 100 µM | > 100 µM | > 100 µM |  |  | 
14 | CC(C)C1=CC(=O)C(C)(C2=NC(C)(C)CO2)c2ccccc21 (centres undefined) | > 100 µM | > 100 µM |  | > 100 µM | > 100 µM | > 100 µM | > 100 µM |  | > 100 µM | > 100 µM | > 100 µM | > 100 µM | > 100 µM |  |  | 
15 | CC1(C)C[C@H]2C3=CC[C@@H]4[C@@]5(C)CC[C@H](O)C(C)(C)[C@@H]5CC[C@@]4(C)[C@]3(C)C[C@@H](O)[C@@]23C[C@@H]1OC3=O | > 100 µM | > 100 µM | > 100 µM |  | > 100 µM | > 100 µM | > 100 µM | > 100 µM | > 100 µM | > 100 µM | > 100 µM | > 100 µM | > 100 µM | > 100 µM | > 100 µM | 
16 | O=C(/C=C\c1cccc2ccccc12)c1ccc(Br)cc1 | 93.6 µM | 32 µM | 31.7 µM |  | 31.2 µM | 52.1 µM | 50.6 µM |  | 38.7 µM | 29.6 µM | 43 µM | 35.5 µM | 41.9 µM |  |  | 
17 | COCC1OCCN1C (centres undefined) | > 100 µM | > 100 µM |  | > 100 µM | > 100 µM | > 100 µM | > 100 µM | > 100 µM | > 100 µM | > 100 µM |  | > 100 µM | > 100 µM |  | > 100 µM | > 100 µM
18 | CC(=O)CCC(=O)CC(O)(C(F)(F)F)C(F)(F)F |  | 34.9 µM | 33.6 µM | 34.5 µM | 42.6 µM |  | 51 µM |  | 33.2 µM | 33.2 µM | 38.1 µM | 37 µM | 31.9 µM | 37.8 µM | 40 µM | 
